Data: ChEMBL document CHEMBL3808386, “Targeting Mitogen-Activated Protein Kinase-Activated Protein Kinase 2 (MAPKAPK2, MK2): Medicinal Chemistry Efforts To Lead Small Molecule Inhibitors to Clinical Trials” (J Med Chem, 2016)

What was measured:
[1] = Terminal half life in Sprague-Dawley rat plasma at 3 mg/kg, po; type: ADME, organism-based; details: read-out: beta t1/2 (converted)
Canis familiaris [2] = experiment: Hepatotoxicity in beagle dog assessed as increase in serum bile acids at 750 mg/kg, po qd administered as single dose through gavage by LC-MS/MS analysis relative to control; type: toxicity, organism-based, Canis lupus familiaris; details: in vivo
Rattus norvegicus [3] = experiment: Anti-inflammatory activity in po dosed Lewis rat model of LPS-induced acute endotoxemia inflammation assessed as inhibition of LPS-induced TNFalpha production administered through gavage pretreated for 4 hrs followed by LPS challenge measured after 90 mins by ELISA relative to control; type: functional
Bile salt export pump = Bile salt export pump (Homo sapiens, UniProt O95342); experiment: Inhibition of human BSEP expressed in recombinant baculovirus infected insect Sf9 cell membrane vesicles assessed as [3H]-taurocholate transport preincubated for 5 mins followed by ATP or AMP addition measured after 5 mins by scintillation counting method
[4] = target: T1, MAP kinase-activated protein kinase 2 (Homo sapiens, UniProt P49137); experiment: Inhibition of MK2 in human U937 cells assessed as reduction in LPS-stimulated HSP27 phosphorylation at Ser82 preincubated for 1 hr followed by LPS addition measured after 30 mins by Western blot analysis; type: cell-based, U-937
Target sequence in this assay (P49137 whole entry): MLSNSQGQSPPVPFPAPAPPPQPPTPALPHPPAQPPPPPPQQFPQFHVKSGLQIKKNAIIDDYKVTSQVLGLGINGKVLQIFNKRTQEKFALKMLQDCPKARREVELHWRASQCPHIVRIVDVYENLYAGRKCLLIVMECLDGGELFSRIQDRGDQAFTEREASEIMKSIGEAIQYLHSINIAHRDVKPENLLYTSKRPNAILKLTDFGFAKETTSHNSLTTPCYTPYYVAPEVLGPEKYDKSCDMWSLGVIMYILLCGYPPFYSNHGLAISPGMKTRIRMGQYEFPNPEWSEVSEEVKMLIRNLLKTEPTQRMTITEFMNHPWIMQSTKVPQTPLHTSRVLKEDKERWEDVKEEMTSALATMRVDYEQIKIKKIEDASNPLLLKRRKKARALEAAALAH

Canis familiaris [5] = experiment: Hepatotoxicity in beagle dog assessed as increase in total bilirubin at 750 mg/kg, po qd administered as single dose through gavage by LC-MS/MS analysis relative to control; type: toxicity, organism-based, Canis lupus familiaris; details: in vivo
U-937 = experiment: Inhibition of LPS-induced TNFalpha production in human U937 cells preincubated for 1 hr followed by LPS addition measured after 4 hrs by electro-chemiluminescence method; type: functional, cell-based
Rattus norvegicus [6] = experiment: Anti-inflammatory activity in Lewis rat model of Streptococcal cell wall-induced arthritis assessed as reduction in chronic hind paw swelling up to 100 mg/kg, po bid administered through gavage for 10 to 21 days measured on day 21 by displacement plethysmometric method relative to control; type: functional
[7] = Tmax in Sprague-Dawley rat plasma at 3 mg/kg, po; type: ADME, organism-based
[8] = Inhibition of MRP2 in MDCK cells after 15 mins by Calcein-AM assay; type: cell-based, Canis lupus familiaris
[9] = Inhibition of P-gp in MDCK-MDR1 cells after 30 mins by Calcein-AM assay; type: cell-based, Canis lupus familiaris
[10] = target: Rho-associated protein kinase 1 (Homo sapiens) (UniProt Q13464); experiment: Inhibition of recombinant human N-terminal His6-tagged ROCK1 (17 to 535 residues) expressed in baculovirus infected Sf21 cells assessed as residual activity at 30 uM in presence of radiolabelled ATP by radiometric assay relative to control
[11] = target: Myosin light chain kinase, smooth muscle (Homo sapiens) (UniProt Q15746); experiment: Inhibition of recombinant human N-terminal His6-tagged MLCK (1425 to 1771 residues) expressed in baculovirus infected Sf21 cells assessed as residual activity at 30 uM in presence of radiolabelled ATP by radiometric assay relative to control
[12] = target: T1, MAP kinase-activated protein kinase 2; experiment: Inhibition of recombinant human N-terminal GST-tagged MK2 (46 to 400 residues) expressed in Escherichia coli assessed as reduction in recombinant human HSP27 phosphorylation at 200 uM after 30 mins by Western blot analysis relative to control
Target sequence in this assay (P49137 whole entry, looked up): as the sequence (P49137 whole entry) above

Fibroblast [13] = experiment: Inhibition of TGF-beta1-induced CTGF expression in serum-starved human keloid fibroblasts at 10 uM preincubated for 2 hrs followed TGF-beta1 addition measured after 24 hrs by Western blot analysis relative to control; type: functional
[14] = target: Protein kinase C delta type (Homo sapiens) (UniProt Q05655); experiment: Inhibition of recombinant human N-terminal His6-tagged amino acids 2-end of PKCdelta expressed in Sf21 cells assessed as residual activity at 30 uM in presence of radiolabelled ATP by radiometric assay relative to control
[15] = target: Mitogen-activated protein kinase 14 (Homo sapiens) (UniProt Q16539); experiment: Inhibition of full length recombinant human N-terminal GST-tagged p38alpha MAP kinase expressed in Escherichia coli assessed as residual activity at 30 uM in presence of radiolabelled ATP by radiometric assay relative to control
[16] = target: T1, MAP kinase-activated protein kinase 2; experiment: Inhibition of recombinant human N-terminal GST-tagged MK2 (46 to 400 residues) expressed in Escherichia coli in presence of radiolabelled ATP by radiometric assay
Target sequence in this assay (P49137 whole entry): as above

[17] = target: T2, Interleukin-1 receptor-associated kinase 4 (Homo sapiens) (UniProt Q9NWZ3); experiment: Inhibition of full length recombinant human N-terminal His6-tagged IRAK4 expressed in baculovirus infected Sf21 cells assessed as residual activity at 30 uM in presence of radiolabelled ATP by radiometric assay relative to control
T2 sequence (whole entry): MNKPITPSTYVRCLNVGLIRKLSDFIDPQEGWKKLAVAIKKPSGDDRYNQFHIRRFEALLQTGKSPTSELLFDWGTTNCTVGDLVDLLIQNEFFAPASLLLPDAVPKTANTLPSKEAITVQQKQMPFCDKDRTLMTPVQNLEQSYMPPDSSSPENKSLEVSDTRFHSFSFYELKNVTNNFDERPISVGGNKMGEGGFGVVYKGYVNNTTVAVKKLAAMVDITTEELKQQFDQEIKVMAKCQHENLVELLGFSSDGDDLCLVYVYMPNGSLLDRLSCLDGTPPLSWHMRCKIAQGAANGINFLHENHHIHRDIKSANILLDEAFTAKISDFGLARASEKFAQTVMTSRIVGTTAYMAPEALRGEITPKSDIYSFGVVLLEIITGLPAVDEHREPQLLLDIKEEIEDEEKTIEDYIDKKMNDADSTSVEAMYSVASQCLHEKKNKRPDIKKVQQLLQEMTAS

[18] = target: RAC-beta serine/threonine-protein kinase (Homo sapiens) (UniProt P31751); experiment: Inhibition of recombinant human N-terminal His6-tagged PKBbeta (120 to 481 residues) expressed in baculovirus infected Sf21 cells assessed as residual activity at 30 uM in presence of radiolabelled ATP by radiometric assay relative to control
Fibroblast [19] = experiment: Inhibition of TGF-beta1-induced collagen type 1 expression in serum-starved human keloid fibroblasts at 10 uM preincubated for 2 hrs followed TGF-beta1 addition measured after 24 hrs by Western blot analysis relative to control; type: functional
[20] = target: Myosin light chain kinase, smooth muscle (Homo sapiens) (UniProt Q15746); experiment: Inhibition of recombinant human N-terminal His6-tagged MLCK (1425 to 1771 residues) expressed in baculovirus infected Sf21 cells assessed as residual activity at 300 uM in presence of radiolabelled ATP by radiometric assay relative to control
[21] = target: Protein kinase C delta type (Homo sapiens) (UniProt Q05655); experiment: Inhibition of recombinant human N-terminal His6-tagged amino acids 2-end of PKCdelta expressed in Sf21 cells assessed as residual activity at 300 uM in presence of radiolabelled ATP by radiometric assay relative to control
[22] = target: T2, Interleukin-1 receptor-associated kinase 4 (Homo sapiens); experiment: Inhibition of full length recombinant human N-terminal His6-tagged IRAK4 expressed in baculovirus infected Sf21 cells assessed as residual activity at 300 uM in presence of radiolabelled ATP by radiometric assay relative to control
[23] = target: Rho-associated protein kinase 1 (Homo sapiens) (UniProt Q13464); experiment: Inhibition of recombinant human N-terminal His6-tagged ROCK1 (17 to 535 residues) expressed in baculovirus infected Sf21 cells assessed as residual activity at 300 uM in presence of radiolabelled ATP by radiometric assay relative to control
[24] = target: RAC-beta serine/threonine-protein kinase (Homo sapiens) (UniProt P31751); experiment: Inhibition of recombinant human N-terminal His6-tagged PKBbeta (120 to 481 residues) expressed in baculovirus infected Sf21 cells assessed as residual activity at 300 uM in presence of radiolabelled ATP by radiometric assay relative to control
[25] = target: Mitogen-activated protein kinase 14 (Homo sapiens) (UniProt Q16539); experiment: Inhibition of full length recombinant human N-terminal GST-tagged p38alpha MAP kinase expressed in Escherichia coli assessed as residual activity at 300 uM in presence of radiolabelled ATP by radiometric assay relative to control

Bile salt export pump, sequence (O95342 whole entry): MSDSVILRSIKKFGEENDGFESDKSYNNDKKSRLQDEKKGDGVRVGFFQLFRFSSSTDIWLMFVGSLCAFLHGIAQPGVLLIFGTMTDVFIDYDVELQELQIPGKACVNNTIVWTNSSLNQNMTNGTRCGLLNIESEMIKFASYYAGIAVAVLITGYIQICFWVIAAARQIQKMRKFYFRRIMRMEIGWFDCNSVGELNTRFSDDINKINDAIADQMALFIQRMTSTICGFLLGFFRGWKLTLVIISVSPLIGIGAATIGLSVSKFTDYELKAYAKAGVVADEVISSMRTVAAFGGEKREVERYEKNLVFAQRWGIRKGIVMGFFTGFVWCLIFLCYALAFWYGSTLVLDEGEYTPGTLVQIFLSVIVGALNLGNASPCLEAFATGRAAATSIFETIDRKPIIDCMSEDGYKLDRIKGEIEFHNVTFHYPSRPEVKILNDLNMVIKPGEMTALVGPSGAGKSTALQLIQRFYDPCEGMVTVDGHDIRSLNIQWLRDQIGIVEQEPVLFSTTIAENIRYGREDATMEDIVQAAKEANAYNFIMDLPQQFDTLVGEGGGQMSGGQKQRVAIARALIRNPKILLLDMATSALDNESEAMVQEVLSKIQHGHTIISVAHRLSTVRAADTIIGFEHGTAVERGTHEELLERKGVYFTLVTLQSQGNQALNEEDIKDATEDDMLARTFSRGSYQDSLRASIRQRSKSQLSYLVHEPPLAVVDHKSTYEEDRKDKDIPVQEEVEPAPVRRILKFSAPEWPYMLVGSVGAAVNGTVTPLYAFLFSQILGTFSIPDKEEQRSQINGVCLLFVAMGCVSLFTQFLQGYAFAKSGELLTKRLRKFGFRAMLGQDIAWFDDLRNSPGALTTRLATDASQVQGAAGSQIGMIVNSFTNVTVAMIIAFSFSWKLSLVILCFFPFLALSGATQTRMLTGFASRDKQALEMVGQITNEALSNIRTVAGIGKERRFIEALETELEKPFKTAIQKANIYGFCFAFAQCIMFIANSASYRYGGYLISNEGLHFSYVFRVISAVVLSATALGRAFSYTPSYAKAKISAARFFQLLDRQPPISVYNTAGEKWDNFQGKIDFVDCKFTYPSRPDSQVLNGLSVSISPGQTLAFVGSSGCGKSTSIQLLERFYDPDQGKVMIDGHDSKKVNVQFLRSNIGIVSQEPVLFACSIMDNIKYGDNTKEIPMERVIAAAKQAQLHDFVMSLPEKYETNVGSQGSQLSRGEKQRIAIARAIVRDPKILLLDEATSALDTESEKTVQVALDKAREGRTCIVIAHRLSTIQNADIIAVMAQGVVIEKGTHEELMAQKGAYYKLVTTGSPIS
Myosin light chain kinase, smooth muscle (Homo sapiens), sequence (Q15746 whole entry, the tested form may be a part): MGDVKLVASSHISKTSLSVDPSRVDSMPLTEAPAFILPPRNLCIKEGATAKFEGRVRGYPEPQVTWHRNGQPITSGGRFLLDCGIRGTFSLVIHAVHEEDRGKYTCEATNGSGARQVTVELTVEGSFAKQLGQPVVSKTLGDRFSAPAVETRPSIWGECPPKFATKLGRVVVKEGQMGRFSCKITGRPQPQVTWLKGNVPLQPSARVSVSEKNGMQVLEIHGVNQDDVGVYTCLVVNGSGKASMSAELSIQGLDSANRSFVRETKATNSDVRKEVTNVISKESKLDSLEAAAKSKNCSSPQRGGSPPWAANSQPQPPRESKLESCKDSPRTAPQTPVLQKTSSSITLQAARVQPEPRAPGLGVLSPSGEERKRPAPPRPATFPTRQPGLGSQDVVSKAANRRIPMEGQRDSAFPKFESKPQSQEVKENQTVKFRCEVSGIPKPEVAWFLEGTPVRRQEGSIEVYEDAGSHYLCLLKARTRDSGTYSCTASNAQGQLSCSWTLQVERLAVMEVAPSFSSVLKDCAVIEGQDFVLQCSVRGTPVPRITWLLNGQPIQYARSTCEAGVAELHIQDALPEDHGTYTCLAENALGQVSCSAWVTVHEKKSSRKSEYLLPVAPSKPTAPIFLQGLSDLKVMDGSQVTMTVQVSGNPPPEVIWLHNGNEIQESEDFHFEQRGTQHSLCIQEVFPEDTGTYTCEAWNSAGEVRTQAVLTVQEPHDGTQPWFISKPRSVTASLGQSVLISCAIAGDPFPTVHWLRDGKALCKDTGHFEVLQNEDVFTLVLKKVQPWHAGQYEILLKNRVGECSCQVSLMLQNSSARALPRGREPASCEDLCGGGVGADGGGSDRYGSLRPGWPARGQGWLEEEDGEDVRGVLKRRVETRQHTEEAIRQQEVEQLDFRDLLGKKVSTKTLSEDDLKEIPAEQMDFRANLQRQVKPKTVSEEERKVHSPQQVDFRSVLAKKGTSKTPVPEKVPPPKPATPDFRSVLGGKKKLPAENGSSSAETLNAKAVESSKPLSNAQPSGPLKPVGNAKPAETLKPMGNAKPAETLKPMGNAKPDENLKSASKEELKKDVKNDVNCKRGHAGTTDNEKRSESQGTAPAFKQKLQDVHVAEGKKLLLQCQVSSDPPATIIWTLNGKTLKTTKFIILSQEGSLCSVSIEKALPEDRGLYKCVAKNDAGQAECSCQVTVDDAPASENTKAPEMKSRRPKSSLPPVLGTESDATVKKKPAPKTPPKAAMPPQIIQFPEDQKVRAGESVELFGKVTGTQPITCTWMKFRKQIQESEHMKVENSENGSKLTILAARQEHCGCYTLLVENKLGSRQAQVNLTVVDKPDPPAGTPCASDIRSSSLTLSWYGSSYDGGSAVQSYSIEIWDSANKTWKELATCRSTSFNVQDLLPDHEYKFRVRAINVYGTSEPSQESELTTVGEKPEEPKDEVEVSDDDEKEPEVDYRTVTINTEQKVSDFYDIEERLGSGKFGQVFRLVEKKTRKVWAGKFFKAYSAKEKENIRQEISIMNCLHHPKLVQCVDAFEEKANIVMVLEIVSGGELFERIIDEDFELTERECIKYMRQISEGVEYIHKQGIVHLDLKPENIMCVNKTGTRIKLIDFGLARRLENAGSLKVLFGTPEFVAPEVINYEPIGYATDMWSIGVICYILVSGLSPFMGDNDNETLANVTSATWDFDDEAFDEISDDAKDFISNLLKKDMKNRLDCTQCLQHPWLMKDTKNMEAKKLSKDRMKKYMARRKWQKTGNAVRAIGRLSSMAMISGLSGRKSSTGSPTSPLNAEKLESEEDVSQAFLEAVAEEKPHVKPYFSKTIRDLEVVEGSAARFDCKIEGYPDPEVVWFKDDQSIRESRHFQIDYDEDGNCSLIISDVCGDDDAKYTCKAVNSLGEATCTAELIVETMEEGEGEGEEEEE
RAC-beta serine/threonine-protein kinase (Homo sapiens), sequence (P31751 whole entry, the tested form may be a part): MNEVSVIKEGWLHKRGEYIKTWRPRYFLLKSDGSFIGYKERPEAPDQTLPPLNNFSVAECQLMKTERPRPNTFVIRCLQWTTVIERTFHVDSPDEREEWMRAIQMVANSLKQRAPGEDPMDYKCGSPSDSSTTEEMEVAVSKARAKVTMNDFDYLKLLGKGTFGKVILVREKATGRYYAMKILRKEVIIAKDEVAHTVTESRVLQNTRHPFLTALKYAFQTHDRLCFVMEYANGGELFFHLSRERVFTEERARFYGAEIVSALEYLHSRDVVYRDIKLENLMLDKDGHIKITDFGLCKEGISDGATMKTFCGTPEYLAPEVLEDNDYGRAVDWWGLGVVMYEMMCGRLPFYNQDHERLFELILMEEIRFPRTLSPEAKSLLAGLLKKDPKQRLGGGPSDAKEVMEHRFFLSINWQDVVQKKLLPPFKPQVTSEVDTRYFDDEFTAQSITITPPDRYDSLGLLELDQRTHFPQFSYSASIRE
Mitogen-activated protein kinase 14 (Homo sapiens), sequence (Q16539 whole entry, the tested form may be a part): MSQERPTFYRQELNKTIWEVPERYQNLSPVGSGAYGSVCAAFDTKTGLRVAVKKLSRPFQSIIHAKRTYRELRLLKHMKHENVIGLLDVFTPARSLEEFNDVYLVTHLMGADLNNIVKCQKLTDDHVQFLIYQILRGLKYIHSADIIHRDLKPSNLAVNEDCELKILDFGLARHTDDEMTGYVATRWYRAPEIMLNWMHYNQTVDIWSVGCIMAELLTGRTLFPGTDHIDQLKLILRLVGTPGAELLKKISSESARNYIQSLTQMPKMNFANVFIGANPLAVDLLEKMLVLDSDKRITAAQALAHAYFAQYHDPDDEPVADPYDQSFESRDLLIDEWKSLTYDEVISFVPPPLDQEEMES

## Cc1ccc(-c2ccc3c(ccc4sc5c(c43)NC[C@@H](C)NC5=O)n2)cn1
[1]
  half-life: 9 h
Canis familiaris [2]
  Activity: <= 25000%
Rattus norvegicus [3]
  inhibition (INH): >90%
Bile salt export pump
  IC50: 7 µM
[4]
  IC50: 0.201 µM
Canis familiaris [5]
  Activity: <= 25000%
U-937
  IC50: 0.15 µM
Rattus norvegicus [6]
  inhibition (INH): 80%
[7]
  Tmax: 0.167 h
[8]
  IC50: 7 µM
[9]
  IC50: 7 µM

## CC[C@H](C)[C@H](NC(=O)[C@H](CCCNC(=N)N)NC(=O)[C@H](CCCNC(=N)N)NC(=O)[C@H](CC(C)C)NC(=O)[C@H](Cc1c[nH]c2ccccc12)NC(=O)[C@H](C)NC(=O)[C@H](CCCCN)NC(=O)[C@@H](NC(=O)[C@H](CCCNC(=N)N)NC(=O)[C@H](CCCNC(=N)N)NC(=O)[C@H](CC(C)C)NC(=O)[C@@H](N)Cc1c[nH]c2ccccc12)[C@@H](C)CC)C(=O)N[C@@H](CCCCN)C(=O)N[C@@H](C)C(=O)N[C@@H](CC(C)C)C(=O)N[C@@H](CC(N)=O)C(=O)N[C@@H](CCCNC(=N)N)C(=O)N[C@@H](CCC(N)=O)C(=O)N[C@@H](CC(C)C)C(=O)NCC(=O)N[C@H](C(=O)N[C@@H](C)C(=O)N[C@@H](C)C(=O)O)C(C)C
[10]
  Activity: 0%
[11]
  Activity: 4%
[12]
  inhibition: 80%
Fibroblast [13]
  inhibition at 10 µM: 68%
[14]
  Activity: 11%
[15]
  Activity: 61%
[16]
  IC50: 0.74 µM
[17]
  Activity: 12%
[18]
  Activity: 18%
Fibroblast [19]
  inhibition at 10 µM: 76%

## COCCOCc1cccc(-c2ccc3c(ccc4sc5c(c43)NC[C@@H](C)NC5=O)n2)c1
Bile salt export pump
  IC50: 7 µM
[8]
  IC50: 7 µM
[9]
  IC50: 7 µM

## H-YARAAARQARAKALNRQLGVAA-OH
[20]
  Activity: 66%
[21]
  Activity: 105%
[22]
  Activity: 68%
[23]
  Activity: 95%
[16]
  IC50: 5.8 µM
[24]
  Activity: 96%
[25]
  Activity: 100%

## H-KKKALNRQLGVAA-OH
[12]
  inhibition: 64%
